Target: T1, pancreatic α-amylase (Sus scrofa, UniProt P00690)
T1 construct: gene AMY2
T1 sequence (P00690 16-511): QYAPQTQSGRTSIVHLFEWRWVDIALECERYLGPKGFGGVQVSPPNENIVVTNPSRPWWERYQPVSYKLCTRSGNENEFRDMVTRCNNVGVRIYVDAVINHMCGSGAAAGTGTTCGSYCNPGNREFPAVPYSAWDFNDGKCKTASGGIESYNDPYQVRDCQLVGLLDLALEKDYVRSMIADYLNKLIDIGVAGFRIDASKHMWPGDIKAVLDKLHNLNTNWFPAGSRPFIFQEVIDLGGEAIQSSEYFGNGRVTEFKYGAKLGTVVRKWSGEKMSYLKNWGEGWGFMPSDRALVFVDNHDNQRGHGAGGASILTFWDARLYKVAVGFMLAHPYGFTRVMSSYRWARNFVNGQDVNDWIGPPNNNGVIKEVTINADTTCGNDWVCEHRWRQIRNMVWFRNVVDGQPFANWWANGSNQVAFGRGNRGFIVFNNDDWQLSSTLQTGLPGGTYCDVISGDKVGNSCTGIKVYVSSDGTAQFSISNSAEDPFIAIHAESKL
Assay: starch hydrolysis inhibition assay with DNS readout at […] nm; Lineweaver-Burk kinetics
Format: biochemical

IC50: 24.4 ± 0.1 µM
SMILES: C[C@@H]1O[C@@H](OC[C@H]2O[C@@H](Oc3cc4c(O)cc(O)cc4[o+]c3-c3ccc(O)c(O)c3)[C@H](O)[C@@H](O)[C@@H]2O)[C@H](O)[C@H](O)[C@H]1O [C3R, Cyanidin-3-rutinoside]
